From patent US20230271956A1, “AMIDE DERIVATIVES” (Merck Patent GmbH, priority 2020, published 2023)

Key:
human rec ACSS2 = target: T1, human rec ACSS2 (Homo sapiens, UniProt Q9NR19); assay: Biochemical activity ACSS2 assay (AMP-Glo); details: human recombinant ACSS2, AMP-Glo, 180 min at 37° C.
T1 construct: myc (C); purchased Origene
Method in brief: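 C-terminal myc-tagged human recombinant ACSS2 (1 nM) reacted with 100 µM ATP, 100 µM CoA and 500 µM acetate (final) in pH 7.5 Hepes buffer for 180 min at 37° C, compound in 10 concentrations from 30 µM. Released AMP detected by AMP-Glo luminescence. IC50 normalised to inhibitor-free reaction and 5 µM reference inhibitor.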

ACSS2 = target: T2, ACSS2 (Homo sapiens, UniProt Q9NR19); assay: Cellular assay of 14C acetate incorporation into fatty acids (IC50 ACSS2 cellular lipids); assay type: cell-based; details: HCT-15 cells
T2 construct: endogenous fatty acid synthesis activity in the human HCT-15 cancer cell line; endogenous in cells; host or cells: HCT-15
T2 sequence (Q9NR19 whole entry): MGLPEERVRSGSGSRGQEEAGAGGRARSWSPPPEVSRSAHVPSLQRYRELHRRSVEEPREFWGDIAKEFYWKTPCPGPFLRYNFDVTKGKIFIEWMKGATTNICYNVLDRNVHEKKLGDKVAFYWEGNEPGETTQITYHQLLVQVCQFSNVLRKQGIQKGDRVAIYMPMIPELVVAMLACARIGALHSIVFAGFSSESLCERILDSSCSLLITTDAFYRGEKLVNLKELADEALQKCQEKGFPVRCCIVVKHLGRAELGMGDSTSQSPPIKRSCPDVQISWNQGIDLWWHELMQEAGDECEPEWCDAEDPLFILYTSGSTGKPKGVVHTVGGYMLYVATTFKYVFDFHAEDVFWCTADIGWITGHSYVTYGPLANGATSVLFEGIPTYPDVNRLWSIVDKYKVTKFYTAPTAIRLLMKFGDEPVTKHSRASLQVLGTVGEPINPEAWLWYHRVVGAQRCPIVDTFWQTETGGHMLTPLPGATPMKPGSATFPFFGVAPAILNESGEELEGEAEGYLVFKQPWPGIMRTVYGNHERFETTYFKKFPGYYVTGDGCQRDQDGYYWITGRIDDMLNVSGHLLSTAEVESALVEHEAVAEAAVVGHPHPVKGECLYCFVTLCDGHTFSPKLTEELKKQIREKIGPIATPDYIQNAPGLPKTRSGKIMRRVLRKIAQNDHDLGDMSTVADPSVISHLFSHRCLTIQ
Method in brief: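 Human HCT-15 cells, 24 h on collagen, pre-incubated with compound 2 h at 37 °C in RPMI 1640/10 mM HEPES (≤0.1% DMSO), then 2 h with 14C-acetate plus AlamarBlue as viability check. Lysis at 70 °C, acidified fatty acids captured on scintillant plates; 14C incorporation counted as CPM.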

CHO-K1 cells = assay: Micronucleus assay (MNT) in vitro; assay type: cell-based; parameters: key: A: negative, putative negative (micronuclei detected beyond threshold of 60% cyctotoxicity); B: positive; details: 24 hrs treatment, 0.2 µM to 100 µM
Protocol: The in vitro MNT assay is performed in CHO-K1 cells due to their stable and welI-characterized karyotype, high sensitivity and suitability for a high content imaging approach. They have a basal spontaneous micronucleus frequency of 3-4%.
24 hrs after plating CHO-K1 cells are treated with test compounds for 24 hrs (in duplicates; fixed concentration ranges from 0.2 µM to 100 µM in 2-fold dilution steps). After a medium change cells are incubated for 24 hrs with Cytochalasin B to block cytokinesis and are then fixed and nuclei / micronuclei visualized with a DNA stain. Images are acquired with the Molecular Devices high content imagers IXU or IXM and are analyzed with the dedicated MetaXpress software micronucleus module. Criteria for scoring of micronuclei (MN) are the following: • diameter of the MN should be less than ⅓ of the main nucleus • MN should be separated from or marginally overlap with main nucleus (= no blebs) • MN should have similar staining as the main nucleus At least 1000 binucleated cells are evaluated per treatment replicate. Mitomycin C is used as reference stimulator of micronucleus formation. Cytotoxicity is evaluated in parallel and defined by comparing total nuclei count in compound-treated samples to neutral control samples treated with vehicle only (1% DMSO) (100% cytotoxicity means all cells are dead or lost).
A test compound is regarded as POSITIVE if generation of micronuclei and exhibition of less than 60% cytotoxicity at the same concentration can be observed.
Compounds are scored only in the soluble concentration range. Experimental data of the compounds shown in Table 1 in the MNT assay are shown in Table 2 below and classified in the following groups: […]

T1 sequence (Q9NR19 whole entry): as above

Row | Structure (SMILES) | IC50 (human rec ACSS2) [nM] | IC50 (ACSS2) [nM] | MNT (CHO-K1 cells)
1 | CCc1c(C(O)(c2ccccc2)c2ccccc2)nc2cc(F)c(C(=O)Nc3ncn(CC)n3)cn12 [Compound 20, 3-Ethyl-7-fluoro-2-(hydroxy-diphenylmethyl)-imidazo[1,2-a]pyridine-6-carboxylic acid (1-ethyl-1H-[1,2,4]triazol-3-yl)-amide] | 1 to 10 | 1 to 10 | A
2 | CCc1c(C(O)(c2ccccc2F)c2ccccc2F)nn2ccc(C(=O)Nc3ncn(CC)n3)cc12 [Compound 5, 2-[Bis-(2-fluoro-phenyl)-hydroxy-methyl]-3-ethyl-pyrazolo[1,5-a]pyridine-5-carboxylic acid (1-ethyl-1H-[1,2,4]triazol-3-yl)-amide] | 1 to 10 | 0.01 to 1 | A
3 | CCc1c(C(O)(c2ccccc2)c2ccccc2)nn2cc(OC)c(C(=O)Nc3cnn(CC)c3)cc12 [Compound 8, 3-Ethyl-2-(hydroxy-diphenyl-methyl)-6-methoxy-pyrazolo[1,5-a]pyridine-5-carboxylic acid (1-ethyl-1H-pyrazol-4-yl)-amide] | 10 to 100 | 10 to 100 | A
4 | CCc1c(C(O)(c2ccccc2)c2ccccc2)nn2ccc(C(=O)Nc3cnn(CC)c3)cc12 [Compound 10, 3-Ethyl-2-(hydroxy-diphenyl-methyl)-pyrazolo[1,5-a]pyridine-5-carboxylic acid (1-ethyl-1H-pyrazol-4-yl)-amide] | 10 to 100 | 10 to 100 | A
5 | CCn1cnc(NC(=O)c2cc3c(nc2F)nc(C(O)(c2ccccc2)c2ccccc2)n3CC)n1 [Compound 89, 1-ethyl-N-(1-ethyl-1H-1,2,4-triazol-3-yl)-5-fluoro-2-(hydroxydiphenylmethyl)-1H-imidazo[4,5-b]pyridine-6-carboxamide] | 1 to 10 | 1 to 10 | A
6 | CCn1cnc(NC(=O)c2cc3c(nc2OC)nc(C(O)(c2ccccc2)c2ccccc2)n3CC)n1 [Compound 103, 1-ethyl-N-(1-ethyl-1H-1,2,4-triazol-3-yl)-2-(hydroxydiphenylmethyl)-5-methoxy-1H-imidazo[4,5-b]pyridine-6-carboxamide] | 1 to 10 | 1 to 10 | A
7 | CCc1c(C(O)(c2ccccc2F)c2ccccc2F)nn2cc(C)c(C(=O)Nc3ncn(CC)n3)cc12 [Compound 3, 2-[Bis-(2-fluoro-phenyl)-hydroxy-methyl]-3-ethyl-6-methyl-pyrazolo[1,5-a]pyridine-5-carboxylic acid (1-ethyl-1H-[1,2,4]triazol-3-yl)-amide] | 1 to 10 | 10 to 100 | A
8 | CCn1cnc(NC(=O)c2cc3c(nc2OC)nc(C(O)(c2ccccc2)c2ccccn2)n3CC)n1 (single isomer, unassigned) [Compound 53, 1-ethyl-N-(1-ethyl-1H-1,2,4-triazol-3-yl)-2-[hydroxy(phenyl)(pyridin-2-yl)methyl]-5-methoxy-1H-imidazo[4,5-b]pyridine-6-carboxamide] | 1 to 10 | 0.01 to 1 | in-conclusive
9 | CCc1c(C(O)(c2ccccc2)c2ccccc2)nc2cc(Cl)c(C(=O)Nc3ncn(CC)n3)cn12 [Compound 14, 7-Chloro-3-ethyl-2-(hydroxy-diphenylmethyl)-imidazo[1,2-a]pyridine-6-carboxylic acid (1-ethyl-1H-[1,2,4]triazol-3-yl)-amide] | 1 to 10 | 1 to 10 | A
10 | CCn1cnc(NC(=O)c2cc3c(nc2F)nc(C(O)(c2ccccc2F)c2ccccc2F)n3CC)n1 [Compound 91, 2-[bis(2-fluorophenyl)(hydroxy)methyl]-1-ethyl-N-(1-ethyl-1H-1,2,4-triazol-3-yl)-5-fluoro-1H-imidazo[4,5-b]pyridine-6-carboxamide] | 1 to 10 | 1 to 10 | A
11 | CCc1c(C(O)(c2ccccc2)c2ccccc2)nn2ccc(C(=O)Nc3ncn(CC)n3)cc12 [Compound 9, 3-Ethyl-2-(hydroxy-diphenyl-methyl)-pyrazolo[1,5-a]pyridine-5-carboxylic acid (1-ethyl-1H-[1,2,4]triazol-3-yl)-amide] | 1 to 10 | 0.01 to 1 | B
12 | CCn1cc(NC(=O)c2cc3c(nc2F)nc(C(O)(c2ccccc2F)c2ccccc2F)n3CC)cn1 [Compound 90, 2-[bis(2-fluorophenyl)(hydroxy)methyl]-1-ethyl-N-(1-ethyl-1H-pyrazol-4-yl)-5-fluoro-1H-imidazo[4,5-b]pyridine-6-carboxamide] | 1 to 10 | 1 to 10 | A
13 | CCn1cc(NC(=O)c2cc3c(nc2Cl)nc(C(O)(c2ccccc2)c2ccccc2)n3CC)cn1 [Compound 98, 5-chloro-1-ethyl-N-(1-ethyl-1H-pyrazol-4-yl)-2-(hydroxydiphenylmethyl)-1H-imidazo[4,5-b]pyridine-6-carboxamide] | 1 to 10 | 10 to 100 | A
